Results as given in patent publication US10758534B2 (Vertex Pharmaceuticals Incorporated, priority 2014, dated 2020).

Molecular target: T1, F508del (Homo sapiens, UniProt P13569, DEL508-508)
T1 construct: expressed in transfected cells
Experiment: Protocol 2: FRET membrane potential optical assay (VIPR), identification of correction compounds
Type: cell-based
Conditions: F508del CFTR modulator activity; compounds of Table 1; read-out: EC30
Outline: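 NIH3T3 mouse fibroblasts stably expressing F508del-CFTR incubated with compound 16 h at 37 °C in serum-free medium, then loaded with CC2-DMPE/DiSBAC2(3) FRET dyes. Channel activated with 10 μM forskolin plus 20 μM genistein in Cl⁻-free (gluconate) bath; depolarisation from Cl⁻ efflux read on VIPR II.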

T1 sequence (P13569 with tags, fused parts or gaps DEL508-508): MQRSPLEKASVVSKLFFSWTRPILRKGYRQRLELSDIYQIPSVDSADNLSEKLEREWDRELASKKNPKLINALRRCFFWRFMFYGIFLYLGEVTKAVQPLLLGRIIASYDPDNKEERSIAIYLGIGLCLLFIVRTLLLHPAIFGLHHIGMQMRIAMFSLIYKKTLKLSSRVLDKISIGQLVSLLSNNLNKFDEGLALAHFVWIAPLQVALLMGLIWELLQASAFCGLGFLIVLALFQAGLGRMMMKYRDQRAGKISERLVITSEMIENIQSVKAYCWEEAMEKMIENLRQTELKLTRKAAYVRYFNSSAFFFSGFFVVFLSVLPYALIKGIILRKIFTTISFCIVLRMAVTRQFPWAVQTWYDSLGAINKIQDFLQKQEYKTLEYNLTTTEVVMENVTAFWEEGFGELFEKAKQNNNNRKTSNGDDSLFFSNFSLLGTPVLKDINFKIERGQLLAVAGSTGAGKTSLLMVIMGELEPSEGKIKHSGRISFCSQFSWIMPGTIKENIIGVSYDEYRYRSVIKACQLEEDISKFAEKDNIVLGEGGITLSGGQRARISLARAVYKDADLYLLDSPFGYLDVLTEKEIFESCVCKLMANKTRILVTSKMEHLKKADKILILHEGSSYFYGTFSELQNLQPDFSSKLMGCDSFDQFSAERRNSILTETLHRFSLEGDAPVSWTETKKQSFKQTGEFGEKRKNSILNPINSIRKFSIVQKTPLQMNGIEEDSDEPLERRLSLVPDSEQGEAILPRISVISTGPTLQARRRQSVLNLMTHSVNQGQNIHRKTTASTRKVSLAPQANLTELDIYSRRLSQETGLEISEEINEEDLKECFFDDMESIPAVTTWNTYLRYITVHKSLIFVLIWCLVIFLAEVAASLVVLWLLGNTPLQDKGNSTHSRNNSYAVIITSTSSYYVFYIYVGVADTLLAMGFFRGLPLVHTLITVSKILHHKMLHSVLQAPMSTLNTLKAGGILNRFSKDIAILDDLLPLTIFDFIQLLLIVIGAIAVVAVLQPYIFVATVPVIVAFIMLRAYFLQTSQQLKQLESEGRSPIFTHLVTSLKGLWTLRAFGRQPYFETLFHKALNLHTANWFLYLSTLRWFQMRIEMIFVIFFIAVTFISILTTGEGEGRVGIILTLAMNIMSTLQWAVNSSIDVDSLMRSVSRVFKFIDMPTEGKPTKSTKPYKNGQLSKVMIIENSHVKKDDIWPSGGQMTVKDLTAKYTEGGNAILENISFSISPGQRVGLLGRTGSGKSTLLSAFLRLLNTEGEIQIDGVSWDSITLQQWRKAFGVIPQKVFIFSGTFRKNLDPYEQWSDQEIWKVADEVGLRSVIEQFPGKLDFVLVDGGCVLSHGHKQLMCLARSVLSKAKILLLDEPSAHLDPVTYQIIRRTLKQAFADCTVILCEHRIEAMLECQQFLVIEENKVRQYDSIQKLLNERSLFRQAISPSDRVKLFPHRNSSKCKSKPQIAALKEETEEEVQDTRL

Row | SMILES | EC30 [nM]
1 | C[C@@H]1CN(c2nc(-c3cccc4c3OCC4)ccc2C(=O)NS(=O)(=O)c2ccc[nH]c2=O)C(C)(C)C1 [Compound 2583, 6-(2,3-dihydrobenzofuran-7-yl)-N-[(2-oxo-1H-pyridin-3-yl)sulfonyl]-2-[(4S)-2,2,4-trimethylpyrrolidin-1-yl]pyridine-3-carboxamide] | 3000 to 10000
2 | C[C@@H]1CN(c2nc(N3CCOC(C)(C)C3)c(F)cc2C(=O)NS(=O)(=O)c2cccc(N)n2)C(C)(C)C1 [Compound 2586, N-[(6-amino-2-pyridyl)sulfonyl]-6-(2,2-dimethylmorpholin-4-yl)-5-fluoro-2-[(4S)-2,2,4-trimethylpyrrolidin-1-yl]pyridine-3-carboxamide] | 3000 to 10000
3 | Cc1ccc(-c2ccc(C(=O)NS(=O)(=O)N3CC[C@H](N)C3)c(N3C[C@@H](C)CC3(C)C)n2)cc1F [Compound 2587, N-[(3S)-3-aminopyrrolidin-1-yl]sulfonyl-6-(3-fluoro-4-methyl-phenyl)-2-[(4S)-2,2,4-trimethylpyrrolidin-1-yl]pyridine-3-carboxamide] | 3000 to 10000
4 | CC(C)COc1cc(F)cc(-c2ccc(C(=O)NS(=O)(=O)c3cccc(N)n3)c(N3CC4(CCC4)CC3(C)C)n2)c1 [Compound 2589, N-[(6-amino-2-pyridyl)sulfonyl]-2-(6,6-dimethyl-7-azaspiro[3.4]octan-7-yl)-6-(3-fluoro-5-isobutoxy-phenyl)pyridine-3-carboxamide] | < 3000
5 | C[C@@H]1CN(c2nc(-c3ccc(CO)cc3)ccc2C(=O)NS(=O)(=O)c2cccnc2N)C(C)(C)C1 [Compound 2590, N-[(2-amino-3-pyridyl)sulfonyl]-6-[4-(hydroxymethyl)phenyl]-2-[(4S)-2,2,4-trimethylpyrrolidin-1-yl]pyridine-3-carboxamide] | < 3000
6 | Cc1cccc(-c2ccc(C(=O)NS(=O)(=O)c3cccnc3N)c(N3C[C@@H](C)CC3(C)C)n2)c1O [Compound 2592, N-[(2-amino-3-pyridyl)sulfonyl]-6-(2-hydroxy-3-methyl-phenyl)-2-[(4S)-2,2,4-trimethylpyrrolidin-1-yl]pyridine-3-carboxamide] | < 3000
7 | C[C@@H]1CN(c2nc(-c3cccc(C(F)(F)F)c3)ccc2C(=O)NS(=O)(=O)c2cccnc2N)C(C)(C)C1 [Compound 2593, N-[(2-amino-3-pyridyl)sulfonyl]-6-[3-(trifluoromethyl)phenyl]-2-[(4S)-2,2,4-trimethylpyrrolidin-1-yl]pyridine-3-carboxamide] | < 3000

Further lines, results first:

Row | EC30 [nM] | SMILES
8 | 3000 to 10000 | CC1CN(c2ncc(-c3ccccc3C#N)cc2C(=O)NS(=O)(=O)c2cccc(N)n2)C(C)(C)C1 (stereo not drawn) [Compound 2584, N-[(6-amino-2-pyridyl)sulfonyl]-5-(2-cyanophenyl)-2-(2,2,4-trimethylpyrrolidin-1-yl)pyridine-3-carboxamide]
9 | < 3000 | CC1CN(c2ncccc2C(=O)NS(=O)(=O)c2cccc(OCc3ccc(Cl)cc3)n2)C(C)(C)C1 (stereo not drawn) [Compound 2585, N—[[6-[(4-chlorophenyl)methoxy]-2-pyridyl]sulfonyl]-2-(2,2,4-trimethylpyrrolidin-1-yl)pyridine-3-carboxamide]
10 | < 3000 | Cc1ccc(OCc2ccccc2)cc1-c1cnc(N2CC(C)CC2(C)C)c(C(=O)NS(=O)(=O)c2cccc(N)n2)c1 (stereo not drawn) [Compound 2588, N-[(6-amino-2-pyridyl)sulfonyl]-5-(5-benzyloxy-2-methyl-phenyl)-2-(2,2,4-trimethylpyrrolidin-1-yl)pyridine-3-carboxamide]
11 | < 3000 | CC1CN(c2ncccc2C(=O)NS(=O)(=O)c2cccc(Oc3cc(F)ccc3Cl)n2)C(C)(C)C1 (stereo not drawn) [Compound 2591, N—[[6-(2-chloro-5-fluoro-phenoxy)-2-pyridyl]sulfonyl]-2-(2,2,4-trimethylpyrrolidin-1-yl)pyridine-3-carboxamide]
12 | < 3000 | CC1CN(c2ncccc2C(=O)NS(=O)(=O)c2cccc(OCC3COc4ccccc4C3)n2)C(C)(C)C1 (stereo not drawn) [Compound 2595, N—[[6-(chroman-3-ylmethoxy)-2-pyridyl]sulfonyl]-2-(2,2,4-trimethylpyrrolidin-1-yl)pyridine-3-carboxamide]
